Each structure is given as a SMILES string.

In this test the target is T1, SARS-CoV-2 Spike (Severe acute respiratory syndrome coronavirus 2, UniProt P0DTC2).
T1 construct: gene S
Put plainly: SPR (Reichert4, CM5 chip, Spike immobilised). The format is binding.

Broadly, the Kd is the concentration at which binding is half-saturated. Read a low Kd as higher affinity. In the case of `COc1ccc2cc1Oc1ccc(cc1)C[C@H]1c3cc(c(OC)cc3CCN1C)Oc1c(OC)c(OC)cc3c1[C@H](C2)N(C)CC3` [tetrandrine], the Kd is about 2230 nM.

The record behind these values is article PMC12399569, “Disruption of Spike Priming in Virus Entry: Tetrandrine as a Pan‐Coronavirus Inhibitor” (MedComm, 2025).
